Literature values in paper PMC12281572.
Several values for one entry are separate records, joined by “and”; a condition that tells them apart may be missing. Equal entries are not always repeated.

Assay: FTIR, 4-fluorophenol as donor (the pK_BHX database, per the paper)
Conditions: CCl4; 25 C

Structure (SMILES) | pK_BHX (log10 Kf of the 1:1 H-bond complex with 4-fluorophenol, by FTIR)
CN1CCCNC1=S | 2.0 log units
CC(C)(C)Br | -0.22 log units
COC(=O)C1CC1 | 1.12 log units
CCOC(=O)C=Cc1ccccc1 | 1.14 log units
CCCN=C(NC)NC#N | 2.09 log units
CN(C)c1ccccn1 | 1.61 log units
C1CSCSC1 | -0.06 log units
C1CSCS1 | -0.38 log units
Cc1ccccc1C | -0.27 log units
CCCCCC#N | 0.89 log units
CC(C)Cl | -0.3 log units
CN1CCN(C)CC1 | 1.88 log units
CCCCNCCCC | 2.11 log units
CC(=O)c1ccc([N+](=O)[O-])cc1 | 0.57 log units and 0.15 log units
Cn1ccccc1=O | 2.5 log units
CC(C)(C)c1ccccc1 | -0.32 log units
CC1=NCCC1 | 2.59 log units
CCCCc1ccccn1 | 1.88 log units
C#CCN=CN(C)C | 2.3 log units
C=COCC | 0.1 log units
N | 1.74 log units
CC(=O)Nc1ccccc1 | 1.69 log units
O=C1CCCCC1 | 1.39 log units
CN(C)C=NC1CCCCC1 | 2.59 log units

Results, then the compound that gave them:

pK_BHX (log10 Kf of the 1:1 H-bond complex with 4-fluorophenol, by FTIR) | Structure (SMILES)
1.43 log units | CC(=Nc1ccc(Br)cc1)N(C)c1ccc(C)cc1
2.27 log units | Cc1ccc(C(=O)N(C)C)cc1
2.7 log units | CN=CN(C)C
2.92 log units | CN(C)C=NC(=O)N(C)C
1.22 log units | CC(=S)N(C)C
2.26 log units | CN(C)C=NCC(C)(C)C
1.21 log units | CSc1ccc(C(C)=O)cc1
1.36 log units | CC(=Nc1ccc(Br)cc1)Nc1ccccc1
0.8 log units | COc1cccc(C#N)c1
0.5 log units and 0.16 log units | CCOC(=O)c1ccc([N+](=O)[O-])cc1
0.72 log units | CC(=O)c1cccc(C(F)(F)F)c1
2.24 log units | CC(=NC#N)N(C)C
2.35 log units | CCN(CC)C(=O)c1ccc(OC)cc1
2.16 log units | CCN(CC(=O)N(CC)c1ccccc1)c1ccccc1
1.94 log units | COc1cccc(CN)c1
1.63 log units | Clc1ccc(N=CNc2ccc(Cl)cc2)cc1
1.41 log units | COC(=O)N(c1ccccc1)c1ccccc1
0.87 log units | C(=Nc1ccccc1)c1ccccc1
1.24 log units | CC(=Nc1cccc(Br)c1)Nc1ccccc1
-0.32 log units and -0.48 log units | CSc1ccccc1
2.36 log units | CCC(=O)N(C)C
0.78 log units | COc1cc(C#N)cc(OC)c1
